Consider 18 molecules from patent publication US8785488B2 (Exelixis Patent Company LLC, priority 2009, dated 2014).

A value given as a limit tells only on which side of the number the result lay.

One test has as its target T1, human TGR5 (h-TGR5) (Homo sapiens, UniProt Q8TDU6).
T1 construct: expressed in transfected cells
T1 sequence (Q8TDU6 1-330): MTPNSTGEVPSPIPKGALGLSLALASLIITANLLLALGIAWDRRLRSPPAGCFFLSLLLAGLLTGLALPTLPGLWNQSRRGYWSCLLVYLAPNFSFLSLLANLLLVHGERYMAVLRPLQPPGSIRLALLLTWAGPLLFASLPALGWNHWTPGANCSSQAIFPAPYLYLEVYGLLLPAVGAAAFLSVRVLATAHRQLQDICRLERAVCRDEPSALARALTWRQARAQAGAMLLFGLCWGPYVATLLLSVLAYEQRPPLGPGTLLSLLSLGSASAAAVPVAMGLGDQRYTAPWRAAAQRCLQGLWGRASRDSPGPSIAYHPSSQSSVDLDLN
The experiment in a line: TGR5/CRE-Luciferiase Assay (HEK 293 hTGR5/CRE-Luc cells). Format: cell-based. The conditions noted are these: h-TGR5 CRE-Luc EC50, Table 1; read-out: CRE-Luc (EC50). A digest of the protocol:
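HEK293 cells stably carrying hTGR5 and a CRE-luciferase reporter were exposed to serially diluted compounds (diluted in DMEM with 5% DMSO) for 6 h. Cells were then lysed in luciferase buffer, luminescence was read, and EC50 values were derived from dose-response curves.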

The target of another test is T2, h-TGR5 (Homo sapiens, UniProt Q8TDU6).
T2 construct: expressed in transfected cells
T2 sequence (Q8TDU6 1-330): T1 sequence (Q8TDU6 1-330)
The experiment in a line: TGR5 cAMP Assay using Cisbio cAMP Dynamic2 htrf kit (hTGR5CRE-luc HEK 293 cells). It counts as cell-based. The conditions noted are these: h-TGR5 cAMP EC50, Table 1; read-out: cAMP (EC50). The protocol:
Compounds were diluted in DPBS with 5% DMSO (8-point serial dilution by half logs) in a 96-well plate and 1 μL was transferred to a 384-well assay plate in quadruplicate. The d2-cAMP and anti-cAMP Ab-cryptate stock solution were prepared as per the instructions in the Cisbio™ (Bedford, Mass.) kit. […] Cells were adjusted to 0.44×10^6 cells/ml followed by addition of IBMX to a final concentration of 0.5 mM. The cells were then mixed with d2-cAMP solution (7.1 mL cells+100 ul d2-cAMP) and 4000 cells (9 μL) were transferred to each well of the 384-well assay plate. Cells without d2-cAMP were added to eight wells as a negative control. The plate was covered and incubated at room temp for 30 min. Then 10 μL of Ab-cryptate solution was added to each well of the assay plate and incubated for 1 hr. The plate was read on an EnVision™ plate reader (Perkin-Elmer, Waltham, Mass.) and the DeltaF value was calculated as per the instructions in the Cisbio™ kit.
In the following tables, EC50 values determined according to the TGR5 cAMP Assay described herein (cAMP); EC50 values determined according to the TGR5/CRE-Luciferiase Assay described herein (CRE-Luc). […] The following compounds in Tables 1 and 2 were made by using procedures described in the above Schemes and Examples, and, where applicable, by making any necessary substitutions of known materials that one skilled in the art would ordinarily understand how to do.

On to `CCOC(=O)NS(=O)(=O)c1ccc(CSc2ncc(C(C)(C)c3ccc(Cl)c(OC)c3)n2-c2ccc(F)cc2)c(F)c1` [ethyl {[4-({[5-{1-[4-chloro-3-(methyloxy)phenyl]-1-methylethyl}-1-(4-fluorophenyl)-1H-imidazol-2-yl]thio}methyl)-3-fluorophenyl]sulfonyl}carbamate], for which the EC50 on human TGR5 (h-TGR5) and at h-TGR5 was < 100 nM in each case.
Regarding `COc1cc(-n2c(C(C)(C)c3ccc(S(N)(=O)=O)c(Cl)c3)cnc2SCc2c(F)cc(S(=O)(=O)NC(=O)NN3CCOCC3)cc2F)ccc1F` [4-{[(5-{1-[4-(aminosulfonyl)-3-chlorophenyl]-1-methylethyl}-1-[4-fluoro-3-(methyloxy)phenyl]-1H-imidazol-2-yl)thio]methyl}-3,5-difluoro-N-[(morpholin-4-ylamino)carbonyl]benzenesulfonamide], the EC50 at human TGR5 (h-TGR5) and at h-TGR5 was < 100 nM each time.
As for `COc1cc(C(C)(C)c2c(Cl)nc(SCC3CCN(S(C)(=O)=O)CC3)n2-c2ccc(F)cc2)ccc1Cl` [4-({[4-chloro-5-{1-[4-chloro-3-(methyloxy)phenyl]-1-methylethyl}-1-(4-fluorophenyl)-1H-imidazol-2-yl]thio}methyl)-1-(methylsulfonyl)piperidine], the EC50 on human TGR5 (h-TGR5) and at h-TGR5 was 100 to 1000 nM throughout.
For the molecule `COc1cc(C(C)(C)c2cnc(SCc3c(F)cc(-c4n[nH]c(=O)o4)cc3Cl)n2-c2ccc(F)cc2)ccc1Cl` [5-[3-chloro-4-({[5-{1-[4-chloro-3-(methyloxy)phenyl]-1-methylethyl}-1-(4-fluorophenyl)-1H-imidazol-2-yl]thio}methyl)-5-fluorophenyl]-1,3,4-oxadiazol-2(3H)-one], the EC50 on human TGR5 (h-TGR5) and at h-TGR5 was < 100 nM in each case.
Regarding `CC(C)(c1ccc(Cl)c(OCCCN2CCOCC2)c1)c1cnc(SCc2c(F)cccc2Cl)n1-c1ccc(F)cc1`, the EC50 on human TGR5 (h-TGR5) and on h-TGR5 was 100 to 1000 nM in each case.
On to `CCNC(=O)NS(=O)(=O)c1ccc(CSc2ncc(C(C)(C)c3ccc(Cl)c(OC)c3)n2-c2ccc(F)cc2)c(Cl)c1` [3-chloro-4-({[5-{1-[4-chloro-3-(methyloxy)phenyl]-1-methylethyl}-1-(4-fluorophenyl)-1H-imidazol-2-yl]thio}methyl)-N-[(ethylamino)carbonyl]benzenesulfonamide], for which the EC50 (usually the concentration giving half of the maximal effect) was 100 to 1000 nM at human TGR5 (h-TGR5) and < 100 nM on h-TGR5.
For `CCOC(=O)NS(=O)(=O)c1ccc(CSc2ncc(C(C)(C)c3ccc(S(N)(=O)=O)c(Cl)c3)n2-c2ccc(F)cc2)c(Cl)c1` [ethyl {[4-({[5-{1-[4-(aminosulfonyl)-3-chlorophenyl]-1-methylethyl}-1-(4-fluorophenyl)-1H-imidazol-2-yl]thio}methyl)-3-chlorophenyl]sulfonyl}carbamate] the same measures were 100 to 1000 nM and < 100 nM.
Taken in the same sequence, the figures for `CC(C)(c1ccc(Cl)c(Cl)c1)c1cnc(SCc2ccc(C(=O)NCCS(=O)(=O)O)cc2F)n1-c1ccc(F)cc1` [2-[({4-[({5-[1-(3,4-dichlorophenyl)-1-methylethyl]-1-(4-fluorophenyl)-1H-imidazol-2-yl}thio)methyl]-3-fluorophenyl}carbonyl)amino]ethanesulfonic acid-sodium (1:1)] were 100 to 1000 nM and < 100 nM.
For `COc1cc(C(C)(C)c2cnc(SCc3c(F)cc(C(=O)O)cc3Cl)n2-c2ccc(F)cn2)ccc1Cl` [3-chloro-4-({[5-{1-[4-chloro-3-(methyloxy)phenyl]-1-methylethyl}-1-(5-fluoropyridin-2-yl)-1H-imidazol-2-yl]thio}methyl)-5-fluorobenzoic acid] the same measures were < 100 nM and < 100 nM.
Take `CC(C)(c1ccc(Cl)c(Cl)c1)c1cnc(SCc2c(F)cc(C(=O)NCCS(=O)(=O)O)cc2F)n1-c1ccc(F)c(Cl)c1` [2-[({4-[({1-(3-chloro-4-fluorophenyl)-5-[1-(3,4-dichlorophenyl)-1-methylethyl]-1H-imidazol-2-yl}thio)methyl]-3,5-difluorophenyl}carbonyl)amino]ethanesulfonic acid]: the EC50 at human TGR5 (h-TGR5) and at h-TGR5 was < 100 nM each time.
With `COc1cc(C(C)(C)c2cnc(SCc3c(F)cc(CCCCCNC(=N)N)cc3F)n2-c2ccc(F)cc2)ccc1Cl` [1-{5-[4-({[5-{1-[4-chloro-3-(methyloxy)pheny1]-1-methylethyl}-1-(4-fluorophenyl)-1H-imidazol-2-yl]thio}methyl)-3,5-difluorophenyl]pentyl}guanidine], the concentration for a half-maximal effect (EC50) at human TGR5 (h-TGR5) and on h-TGR5 was < 100 nM throughout.
As to `COc1cc(C(C)(C)c2cnc(SCc3c(F)cc(S(=O)(=O)NCCS(=O)(=O)O)cc3Cl)n2-c2ccc(F)cc2)ccc1Cl` [2-({[3-chloro-4-({[5-{1-[4-chloro-3-(methyloxy)phenyl]-1-methylethyl}-1-(4-fluorophenyl)-1H-imidazol-2-yl]thio}methyl)-5-fluorophenyl]sulfonyl}amino)ethanesulfonic acid], the EC50 at human TGR5 (h-TGR5) and at h-TGR5 was < 100 nM in each case.
Regarding `COC(=O)c1cc(CSc2ncc(C(C)(C)c3ccc(Cl)c(Cl)c3)n2-c2ccc(F)c(OC)c2)ccc1C#CCNC(=N)N` [methyl 2-(3-{[amino(imino)methyl]amino}prop-1-yn-1-yl)-5-[({5-[1-(3,4-dichlorophenyl)-1-methylethyl]-1-[4-fluoro-3-(methyloxy)phenyl]-1H-imidazol-2-yl}thio)methyl]benzoate], the EC50 at human TGR5 (h-TGR5) and on h-TGR5 was 100 to 1000 nM in each case.
As for `CC(C)(c1ccc(Cl)c(Cl)c1)c1cnc(SCc2ccc(Cl)c(-c3nnn[nH]3)c2)n1-c1ccc(F)cc1` [5-{2-chloro-5-[({5-[1-(3,4-dichlorophenyl)-1-methylethyl]-1-(4-fluorophenyl)-1H-imidazol-2-yl}thio)methyl]phenyl}-1H-tetrazole], the EC50 at human TGR5 (h-TGR5) and on h-TGR5 was 100 to 1000 nM in each case.
For the molecule `CC(C)(c1ccc(S(N)(=O)=O)c(Cl)c1)c1cnc(SCc2c(F)cc(C(=O)O)cc2F)n1-c1ccc(F)c(F)c1` [4-({[5-{1-[4-(aminosulfonyl)-3-chlorophenyl]-1-methylethyl}-1-(3,4-difluorophenyl)-1H-imidazol-2-yl]thio}methyl)-3,5-difluorobenzoic acid], the EC50 on human TGR5 (h-TGR5) and on h-TGR5 was < 100 nM each time.
Regarding `CC(=O)NS(=O)(=O)c1ccc(CSc2ncc(C(C)(C)c3ccc(Cl)c(Cl)c3)n2-c2ccc(F)cc2)c(Cl)c1` [N-({3-chloro-4-[({5-[1-(3,4-dichlorophenyl)-1-methylethyl]-1-(4-fluorophenyl)-1H-imidazol-2-yl}thio)methyl]phenyl}sulfonyl)acetamide], the EC50 at human TGR5 (h-TGR5) and on h-TGR5 was 100 to 1000 nM throughout.
For the molecule `CC(C)(c1ccc(Cl)c(Cl)c1)c1cnc(SCc2ccc(S(N)(=O)=O)cc2Cl)n1-c1ccc(F)cc1` [3-chloro-4-[({5-[1-(3,4-dichlorophenyl)-1-methylethyl]-1-(4-fluorophenyl)-1H-imidazol-2-yl}thio)methyl]benzenesulfonamide], the EC50 on human TGR5 (h-TGR5) and at h-TGR5 was 100 to 1000 nM each time.
`CC(C)(c1ccc(Cl)c(Cl)c1)c1cnc(SCc2ccc(F)c(S(N)(=O)=O)c2)n1-c1ccc(F)cc1` [5-[({5-[1-(3,4-dichlorophenyl)-1-methylethyl]-1-(4-fluorophenyl)-1H-imidazol-2-yl}thio)methyl]-2-fluorobenzenesulfonamide]: the values for the EC50 at human TGR5 (h-TGR5) and at h-TGR5 were < 100 nM and 100 to 1000 nM, respectively.
